Source: ChEMBL document CHEMBL1201862, “PubChem BioAssay data set” (2004)
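Method: 48-hour compound exposure of cells in 96-well plates, five concentrations, linear interpolation of endpoints. At the GI50, growth is halved.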 Activity calls are given as the source filed them. No stated cut-off is given here; in the data, active = GI50 up to about 1.1 µM and inactive = higher.

Tests used:
Experiment in all cases: inhibition of tumour cell growth, NCI panel, 48 h
SN12C = system: SN12C
XF498 = system: XF498
RXF 393 = system: RXF 393
NCI-H522 = system: NCI-H522
COLO 205 = system: COLO 205
HT-29 = system: HT-29
SNB-19 = system: SNB-19
ACHN = system: ACHN
UO-31 = system: UO-31
A549 = system: A549
HOP-92 = system: HOP-92
SW-620 = system: SW-620
OVCAR-8 = system: OVCAR-8
LXFL 529 = system: LXFL 529
SF-268 = system: SF-268
Malme-3M = system: Malme-3M
HOP-62 = system: HOP-62
IGROV-1 = system: IGROV-1
NCI-H460 = system: NCI-H460
HOP-18 = system: HOP-18
HCC 2998 = system: HCC 2998
OVCAR-5 = system: OVCAR-5
A498 = system: A498
M19-MEL = system: M19-MEL
SNB-75 = system: SNB-75
NCI-H226 = system: NCI-H226
RPMI-8226 = system: RPMI-8226
SR = system: SR
OVCAR-4 = system: OVCAR-4
SK-MEL-28 = system: SK-MEL-28
EKVX = system: EKVX
SF-539 = system: SF-539
DLD-1 = system: DLD-1
K562 = system: K562
MOLT-4 = system: MOLT-4
KM-20L2 = system: KM-20L2
SK-MEL-2 = system: SK-MEL-2
DMS-114 = system: DMS-114
HCT-116 = system: HCT-116
U-251 = system: U-251
OVCAR-3 = system: OVCAR-3
KM12 = system: KM12
HCT-15 = system: HCT-15
SF-295 = system: SF-295
NCI-H23 = system: NCI-H23
HL-60 = system: HL-60
786-0 = system: 786-0
UACC-257 = system: UACC-257
LOX IMVI = system: LOX IMVI
TK-10 = system: TK-10
SK-MEL-5 = system: SK-MEL-5
M14 = system: M14
DMS-273 = system: DMS-273
CCRF-CEM = system: CCRF-CEM
SK-OV-3 = system: SK-OV-3
CAKI-1 = system: CAKI-1
UACC-62 = system: UACC-62

For `CCOC(=O)C1S/C(=N\C(=N)N[N+](=O)[O-])N=C1C` (stereo unspecified), the GI50 (SN12C) was > 100 µM (inactive), the GI50 (XF498) was > 100 µM (inactive) and the GI50 (RXF 393) was > 100 µM (inactive). For the same compound, the GI50 (NCI-H522) was > 100 µM (inactive), the GI50 (COLO 205) was > 100 µM (inactive) and the GI50 (HT-29) was > 100 µM (inactive). The GI50 (SNB-19) was > 100 µM (inactive), the GI50 (ACHN) was > 100 µM (inactive) and the GI50 (UO-31) was > 100 µM (inactive). For the same compound, the GI50 (A549) was > 100 µM (inactive), the GI50 (HOP-92) was > 100 µM (inactive) and the GI50 (SW-620) was > 100 µM (inactive). For the same compound, the GI50 (OVCAR-8) was > 100 µM (inactive), the GI50 (LXFL 529) was > 100 µM (inactive) and the GI50 (SF-268) was > 100 µM (inactive). For the same compound, the GI50 (Malme-3M) was > 100 µM (inactive), the GI50 (HOP-62) was > 100 µM (inactive) and the GI50 (IGROV-1) was > 100 µM (inactive). For the same compound, the GI50 (NCI-H460) was > 100 µM (inactive), the GI50 (HOP-18) was > 100 µM (inactive) and the GI50 (HCC 2998) was > 100 µM (inactive). For the same compound, the GI50 (OVCAR-5) was > 100 µM (inactive), the GI50 (A498) was > 100 µM (inactive) and the GI50 (M19-MEL) was > 100 µM (inactive). The GI50 (SNB-75) was > 100 µM (inactive), the GI50 (NCI-H226) was > 100 µM (inactive) and the GI50 (RPMI-8226) was > 100 µM (inactive). The GI50 (SR) was > 100 µM (inactive), the GI50 (OVCAR-4) was > 100 µM (inactive) and the GI50 (SK-MEL-28) was > 100 µM (inactive). The GI50 (EKVX) was > 100 µM (inactive), the GI50 (SF-539) was > 100 µM (inactive) and the GI50 (DLD-1) was > 100 µM (inactive). For the same compound, the GI50 (K562) was > 100 µM (inactive), the GI50 (MOLT-4) was > 100 µM (inactive) and the GI50 (KM-20L2) was > 100 µM (inactive). For the same compound, the GI50 (SK-MEL-2) was > 100 µM (inactive), the GI50 (DMS-114) was > 100 µM (inactive) and the GI50 (HCT-116) was > 100 µM (inactive). For the same compound, the GI50 (U-251) was > 100 µM (inactive), the GI50 (OVCAR-3) was > 100 µM (inactive) and the GI50 (KM12) was > 100 µM (inactive). For the same compound, the GI50 (HCT-15) was > 100 µM, the GI50 (SF-295) was > 100 µM (inactive) and the GI50 (NCI-H23) was > 100 µM (inactive). The GI50 (HL-60) was > 100 µM (inactive), the GI50 (786-0) was > 100 µM (inactive) and the GI50 (UACC-257) was > 100 µM (inactive). For the same compound, the GI50 (LOX IMVI) was > 100 µM (inactive) and the GI50 (TK-10) was > 100 µM (inactive).

`COc1cc(CC2C(=O)OCC2[C@@H](OC(C)=O)c2ccc3c(c2)OCO3)c(Br)c(OC)c1OC` (stereo partly specified) was tested, and the GI50 (SN12C) was > 100 µM (inactive), the GI50 (XF498) was 62.8 µM (inactive) and the GI50 (RXF 393) was 51.3 µM (inactive). For the same compound, the GI50 (NCI-H522) was 26.5 µM (inactive), the GI50 (COLO 205) was 36.8 µM (inactive) and the GI50 (HT-29) was 35.9 µM (inactive). The GI50 (SNB-19) was > 100 µM (inactive), the GI50 (ACHN) was 99.8 µM (inactive) and the GI50 (UO-31) was 53.3 µM (inactive). For the same compound, the GI50 (A549) was 39.4 µM (inactive), the GI50 (HOP-92) was 12 µM (inactive) and the GI50 (SW-620) was 58.3 µM (inactive). For the same compound, the GI50 (OVCAR-8) was > 100 µM (inactive), the GI50 (LXFL 529) was 33.9 µM (inactive) and the GI50 (SF-268) was > 100 µM (inactive). For the same compound, the GI50 (Malme-3M) was 37.9 µM (inactive), the GI50 (HOP-62) was > 100 µM (inactive) and the GI50 (IGROV-1) was 80.2 µM (inactive). For the same compound, the GI50 (SK-MEL-5) was 30.9 µM (inactive), the GI50 (NCI-H460) was 48.3 µM (inactive) and the GI50 (M14) was 50.9 µM (inactive). For the same compound, the GI50 (HOP-18) was > 100 µM (inactive), the GI50 (HCC 2998) was 98.4 µM (inactive) and the GI50 (DMS-273) was 30.7 µM (inactive). For the same compound, the GI50 (CCRF-CEM) was 44.7 µM (inactive), the GI50 (M19-MEL) was 37.8 µM (inactive) and the GI50 (SNB-75) was 28.5 µM (inactive). For the same compound, the GI50 (SK-OV-3) was > 100 µM (inactive), the GI50 (SR) was 29.4 µM (inactive) and the GI50 (OVCAR-4) was 90.6 µM (inactive). The GI50 (SK-MEL-28) was 73.3 µM (inactive), the GI50 (EKVX) was > 100 µM (inactive) and the GI50 (SF-539) was > 100 µM (inactive). The GI50 (DLD-1) was > 100 µM (inactive), the GI50 (CAKI-1) was > 100 µM (inactive) and the GI50 (MOLT-4) was 35.2 µM (inactive). For the same compound, the GI50 (KM-20L2) was 44 µM (inactive), the GI50 (SK-MEL-2) was 61.4 µM (inactive) and the GI50 (DMS-114) was 28 µM (inactive). The GI50 (HCT-116) was 76.7 µM (inactive), the GI50 (OVCAR-3) was 59.2 µM (inactive) and the GI50 (KM12) was 31.5 µM (inactive). For the same compound, the GI50 (HCT-15) was 19.1 µM, the GI50 (SF-295) was 33.1 µM (inactive) and the GI50 (NCI-H23) was 68.9 µM (inactive). For the same compound, the GI50 (HL-60) was 35.6 µM (inactive), the GI50 (786-0) was > 100 µM (inactive) and the GI50 (UACC-257) was 69.5 µM (inactive). For the same compound, the GI50 (UACC-62) was 37.8 µM (inactive), the GI50 (LOX IMVI) was > 100 µM (inactive) and the GI50 (TK-10) was > 100 µM (inactive).
